Assays:
[1] = Molar absorptivities at 280 nm and 493 nm; type: physicochemical
Method: UV-vis absorption profiles were obtained for compound 7-functionalized antibodies, unfunctionalized antibodies, and free compound 7. FIG. 47 provides the results of these analyses. Molar absorptivities (8) were determined for the anti-BCMA antibody at 280 nm (primarily corresponding tyrosine and tryptophan absorbances from the anti-BCMA antibody) and at 493 nm for maleimide fluorescein and 5 (6)-carboxy fluorescein (primarily corresponding to the HOMO to LUMO transition within the fluorescein x-system), and are summarized in Table 18. As the unfunctionalized antibody minimally absorbed around 493 nm, absorbance in this region is quantitative for fluorescein concentration.

[2] = tested on: engineered cytokine receptor switches (fluorescein-binding receptor domains, IL-7 receptor-a intracellular signaling domains); test: T-cell activation, transduction, expansion and differentiation; memory phenotype quantification; type: cell-based; conditions: after 5 days in multi-well plates; non-fluorescein contacted cells about 30%
Source text: This example covers activation, differentiation, and expansion of immune cells with engineered cytokine receptor switches. The engineered cytokine receptor switches included fluorescein-binding receptor domains and IL-7 receptor-a intracellular signaling domains. The cells were activated with CD3 and CD28 antibody-coated beads, followed by small molecule activators for the engineered cytokine switches to promote differentiation to memory phenotypes. The proportion of stem-cell memory, central memory, and effector memory cells were measured following differentiation.
Activation, transfection, expansion, and differentiation were performed according to the timeline in FIG. 28A. The cells were maintained in media with 20 units/ml IL2 throughout the incubation. The cells were first contacted with CD3/CD28 activating beads at a ratio of 1:1 (cells to beads). Following three days of activation and expansion, the cells were transfected with a gamma retroviral vector encoding the engineered cytokine receptor switch with fluorescein binding affinity and mCherry for fluorescence detection. The cells were then transferred to a multi-well plate. […]
Following 5 total days of incubation in the multi-well plates, the cells were analyzed for (1) stem-cell memory, (2) central memory, (3) effector memory, and (4) terminally differentiated effector memory re-expressing CD45RA phenotype. […]

Compound | ε280 nm ([1]; molar absorptivity at 280 nm) [M⁻¹ cm⁻¹] | ε493nm ([1]; molar absorptivity at 493 nm) [M⁻¹ cm⁻¹] | proportion of central memory cells [2]
O=C1OC2(c3ccc(O)cc3Oc3cc(O)ccc32)c2ccc(N3C(=O)C=CC3=O)cc21 [Fluorescein-Maleimide] | 7968 | 43908 | –
O=C1OC2(c3ccc(O)cc3Oc3cc(O)ccc32)c2ccccc21 [fluorescein] | – | – | about 50%

From US20250297220A1, “IMMUNE-ACTIVATING COMPLEXES” (Dynamic Cell Therapies, Inc., priority 2022, published 2025)
